Values joined by “and” are separate entries in the source; they are usually repeats but may differ in a detail not shown here. Equal values may be shown once. Inconclusive results are not listed.
Test system: nude mice, HT29 intrarenal xenograft, tumor weight T/C
Experiment: NCI In Vivo Anticancer Drug Screen. Data for tumor model HT29;CX-1 Human Adenocarcinoma (MER+) (intrarenal inoculation) in NU/NU Swiss (nude) mice
Conditions: endpoint: mean tumor weight change, higher = larger tumour
Procedure, shortened: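 Endpoint measured as tumor size or survival; ratio reported is treated group over vehicle controls.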

[1] = dose: 50.0 mg/kg/injection, schedule: Q04DX004 (sc), vehicle: saline
[2] = dose: 150.0 mg/kg/injection, schedule: Q04DX004 (sc), vehicle: saline with Tween-80
[3] = dose: 300.0 mg/kg/injection, schedule: Q04DX004 (sc), vehicle: saline with Tween-80
[4] = dose: 600.0 mg/kg/injection, schedule: Q04DX004 (sc), vehicle: saline with Tween-80

Cc1c(N)nc([C@H](CC(N)=O)NC[C@H](N)C(N)=O)nc1C(=O)N[C@H](C(=O)N[C@H](C)[C@@H](O)[C@H](C)C(=O)N[C@H](C(=O)NCCc1nc(-c2nc(C(=O)NCCC[S+](C)C)cs2)cs1)[C@@H](C)O)C(OC1OC(CO)C(O)C(O)C1OC1OC(CO)C(O)C(OC(N)=O)C1O)c1cnc[nH]1 (stereo partly specified)
T/C (dose: 4.0 mg/kg/injection, schedule: Q01DX010 (sc), vehicle: saline): 59 % of control
T/C (dose: 6.25 mg/kg/injection, schedule: Q04DX004 (sc), vehicle: saline): 116 % of control
T/C (dose: 8.0 mg/kg/injection, schedule: Q01DX010 (sc), vehicle: saline): 59 % of control
T/C (dose: 8.0 mg/kg/injection, schedule: Q04DX004 (sc), vehicle: saline): 111 % of control
T/C (dose: 16.0 mg/kg/injection, schedule: Q04DX004 (sc), vehicle: saline): 114 % of control
T/C (dose: 25.0 mg/kg/injection, schedule: Q04DX004 (sc), vehicle: saline): 160 % of control
T/C (dose: 32.0 mg/kg/injection, schedule: Q04DX004 (sc), vehicle: saline): 43 % of control
T/C [1]: 113 % of control
T/C (dose: 64.0 mg/kg/injection, schedule: Q01DX010 (sc), vehicle: saline): 42 % of control

COc1ccc(C[C@H](N)C(=O)NC2C(CO)OC(n3cnc4c(N(C)C)ncnc43)C2O)cc1 (stereo partly specified)
T/C (dose: 100.0 mg/kg/injection, schedule: Q04DX004 (sc), vehicle: saline): 174 % of control
T/C (dose: 200.0 mg/kg/injection, schedule: Q04DX004 (sc), vehicle: saline): 96 % of control
T/C (dose: 400.0 mg/kg/injection, schedule: Q04DX004 (sc), vehicle: saline): 185 % of control

CC[C@@]1(O)C[C@H](OC2CC(N(C)C)C(OC3CC(O)C(OC4CCC(=O)C(C)O4)C(C)O3)C(C)O2)c2c(cc3c(c2O)C(=O)c2c(O)ccc(O)c2C3=O)[C@H]1C(=O)OC (stereo partly specified)
T/C (dose: 3.0 mg/kg/injection, schedule: Q04DX004 (sc), vehicle: water): 12 % of control
T/C (dose: 6.0 mg/kg/injection, schedule: Q04DX004 (sc), vehicle: water): -24 % of control

CC1=C2CC(C)(C)/C=C\C(=O)/C(C)=C\C3=C[C@H](C)C[C@]3(O2)C1=O
T/C (dose: 50.0 mg/kg/injection, schedule: Q01DX010 (sc), vehicle: Klucel (hydroxypropylcellulose) (HPC)): 49 % of control

CC(C)NC(=O)N(CCCCBr)N=O
T/C (dose: 75.0 mg/kg/injection, schedule: Q04DX004 (sc), vehicle: Klucel (hydroxypropylcellulose) (HPC)): 174 % of control
T/C (dose: 150.0 mg/kg/injection, schedule: Q04DX004 (sc), vehicle: Klucel (hydroxypropylcellulose) (HPC)): 182 % of control
T/C (dose: 300.0 mg/kg/injection, schedule: Q04DX004 (sc), vehicle: Klucel (hydroxypropylcellulose) (HPC)): 91 % of control
T/C (dose: 600.0 mg/kg/injection, schedule: Q04DX004 (sc), vehicle: Klucel (hydroxypropylcellulose) (HPC)): 108 % of control

Nc1nc(N)c2c(ccc3c2ccn3Cc2cccc([N+](=O)[O-])c2)n1
T/C (dose: 6.25 mg/kg/injection, schedule: Q04DX004 (sc), vehicle: saline with Tween-80): 97 % of control
T/C (dose: 12.5 mg/kg/injection, schedule: Q04DX004 (sc), vehicle: saline with Tween-80): 78 % of control
T/C (dose: 25.0 mg/kg/injection, schedule: Q04DX004 (sc), vehicle: saline with Tween-80): 57 % of control
T/C (dose: 50.0 mg/kg/injection, schedule: Q04DX004 (sc), vehicle: saline with Tween-80): 77 % of control
T/C (dose: 75.0 mg/kg/injection, schedule: Q04DX004 (sc), vehicle: saline with Tween-80): 157 % of control
T/C [2]: 54 % of control

CC(=O)Nc1ccc(O)c(O)c1
T/C [2]: 257 % of control
T/C [3]: 56 % of control
T/C [4]: 231 % of control
T/C (dose: 2400.0 mg/kg/injection, schedule: Q04DX004 (sc), vehicle: saline with Tween-80): 110 % of control

O=Cc1ccccc1
T/C (dose: 200.0 mg/kg/injection, schedule: Q04DX004 (sc), vehicle: Klucel (hydroxypropylcellulose) (HPC)): 119 % of control
T/C (dose: 400.0 mg/kg/injection, schedule: Q04DX004 (sc), vehicle: Klucel (hydroxypropylcellulose) (HPC)): 107 % of control

C=C(C(=O)O)C(N)C(=O)O (stereo unspecified)
T/C (dose: 225.0 mg/kg/injection, schedule: Q04DX004 (sc), vehicle: suspension in saline): 114 % of control
T/C (dose: 450.0 mg/kg/injection, schedule: Q04DX004 (sc), vehicle: suspension in saline): 64 % of control
T/C (dose: 900.0 mg/kg/injection, schedule: Q04DX004 (sc), vehicle: suspension in saline): 109 % of control

CC1(CO)C(O)CCC2(C)C1CCC1CC3CC12CCC3(O)CO (stereo unspecified)
T/C (dose: 50.0 mg/kg/injection, schedule: Q01DX010 (sc), vehicle: saline with Tween-80): 50 % of control and 65 % of control
T/C (dose: 100.0 mg/kg/injection, schedule: Q01DX010 (sc), vehicle: saline with Tween-80): 69 % of control
T/C (dose: 200.0 mg/kg/injection, schedule: Q01DX010 (sc), vehicle: saline with Tween-80): 65 % of control

CCC/C=C/C=C/C(=O)OC1/C(=C/C(=O)OC)CC2CC(C(C)O)OC(=O)CC(O)CC3CC(OC(C)=O)C(C)(C)C(O)(CC4C/C(=C/C(=O)OC)CC(/C=C/C(C)(C)C1(O)O2)O4)O3 (stereo unspecified)
T/C (dose: 0.25 mg/kg/injection, schedule: Q04DX004 (sc), vehicle: saline + alcohol): 95 % of control
T/C (dose: 0.5 mg/kg/injection, schedule: Q04DX004 (sc), vehicle: saline + alcohol): 110 % of control
T/C (dose: 1.0 mg/kg/injection, schedule: Q04DX004 (sc), vehicle: saline + alcohol): 33 % of control
T/C (dose: 2.0 mg/kg/injection, schedule: Q04DX004 (sc), vehicle: saline + alcohol): 47 % of control
T/C (dose: 4.0 mg/kg/injection, schedule: Q04DX004 (sc), vehicle: saline + alcohol): 53 % of control
T/C (dose: 8.0 mg/kg/injection, schedule: Q04DX004 (sc), vehicle: saline + alcohol): 88 % of control

N#CCCSC(=S)C1CCCC1=N (stereo unspecified)
T/C (dose: 225.0 mg/kg/injection, schedule: Q04DX004 (sc), vehicle: saline with Tween-80): 104 % of control
T/C (dose: 450.0 mg/kg/injection, schedule: Q04DX004 (sc), vehicle: saline with Tween-80): 106 % of control
T/C (dose: 900.0 mg/kg/injection, schedule: Q04DX004 (sc), vehicle: saline with Tween-80): 114 % of control
T/C (dose: 1800.0 mg/kg/injection, schedule: Q04DX004 (sc), vehicle: saline with Tween-80): 103 % of control

Cc1nc(N)nc(N)c1-c1ccc(Cl)c(Cl)c1
T/C (dose: 0.32 mg/kg/injection, schedule: Q01DX010 (sc), vehicle: saline): 46 % of control
T/C (dose: 0.63 mg/kg/injection, schedule: Q01DX010 (sc), vehicle: saline): 75 % of control
T/C (dose: 1.25 mg/kg/injection, schedule: Q01DX010 (sc), vehicle: saline): 100 % of control
T/C (dose: 2.5 mg/kg/injection, schedule: Q01DX010 (sc), vehicle: saline): 68 % of control

CN=S(=O)(OCCCCCOS(=O)(=NC)c1ccccc1)c1ccccc1 (stereo unspecified)
T/C [2]: 66 % of control
T/C [3]: 60 % of control
T/C [4]: 27 % of control

O=[N+]([O-])/C=C\c1ccc2c(c1)OCO2
T/C (dose: 100.0 mg/kg/injection, schedule: Q01DX010 (sc), vehicle: Klucel (hydroxypropylcellulose) (HPC)): 55 % of control
T/C (dose: 400.0 mg/kg/injection, schedule: Q01DX010 (sc), vehicle: Klucel (hydroxypropylcellulose) (HPC)): 163 % of control
T/C (dose: 800.0 mg/kg/injection, schedule: Q01DX010 (sc), vehicle: Klucel (hydroxypropylcellulose) (HPC)): 77 % of control

CN(Cc1cnc2nc(N)nc(N)c2n1)c1c(Cl)cc(C(=O)NC(CCC(=O)O)C(=O)O)cc1Cl (stereo unspecified)
T/C (dose: 12.5 mg/kg/injection, schedule: Q01DX010 (sc), vehicle: Klucel (hydroxypropylcellulose) (HPC)): 166 % of control
T/C (dose: 25.0 mg/kg/injection, schedule: Q01DX010 (sc), vehicle: Klucel (hydroxypropylcellulose) (HPC)): 86 % of control

CS(C)=O
T/C (dose: 750.0 mg/kg/injection, schedule: Q01DX010 (sc), vehicle: saline): 36 % of control
T/C (dose: 1500.0 mg/kg/injection, schedule: Q01DX010 (sc), vehicle: saline): 31 % of control
T/C (dose: 3000.0 mg/kg/injection, schedule: Q01DX010 (sc), vehicle: saline): 89 % of control
T/C (dose: 6000.0 mg/kg/injection, schedule: Q01DX010 (sc), vehicle: saline): 75 % of control

ClCC[Se](Cl)(Cl)c1ccccc1
T/C (dose: 12.5 mg/kg/injection, schedule: Q04DX004 (sc), vehicle: saline): 154 % of control
T/C [1]: 100 % of control

CCCCCCC(=O)CC(SCC)c1ccccc1Cl (stereo unspecified)
T/C [2]: 94 % of control
T/C [3]: 92 % of control
T/C (dose: 1200.0 mg/kg/injection, schedule: Q04DX004 (sc), vehicle: saline with Tween-80): 99 % of control

CC(=O)C1(O)Cc2c(O)c3c(c(O)c2C(OC2CC(N)C(O)C(C)O2)C1)C(=O)c1ccccc1C3=O (stereo unspecified)
T/C (dose: 1.0 mg/kg/injection, schedule: Q04DX004 (sc), vehicle: water): 67 % of control

CSCS(=O)C[C@H](CO)NC(=O)/C=C/c1c(C)[nH]c(=O)[nH]c1=O (stereo partly specified)
T/C (dose: 0.75 mg/kg/injection, schedule: Q04DX004 (sc), vehicle: saline): 111 % of control
T/C (dose: 1.5 mg/kg/injection, schedule: Q04DX004 (sc), vehicle: saline): 81 % of control

— PubChem BioAssay AID206 (DTP/NCI, 2004)
